The record followed here is patent US11554120B2, “1H-pyrazolo[4,3-d]pyrimidine compounds as toll-like receptor 7 (TLR7) agonists and methods and uses therefor” (BRISTOL-MYERS SQUIBB COMPANY, priority 2018, dated 2023).

For orientation: EC50 means the concentration giving half of the maximal effect.

This assay has as its target T1, human TLR7 (Homo sapiens, UniProt Q9NYK1).
T1 construct: host or cells: HEK-Blue TLR7 cells (engineered human embryonic kidney cells)
T1 sequence (Q9NYK1 27-1049): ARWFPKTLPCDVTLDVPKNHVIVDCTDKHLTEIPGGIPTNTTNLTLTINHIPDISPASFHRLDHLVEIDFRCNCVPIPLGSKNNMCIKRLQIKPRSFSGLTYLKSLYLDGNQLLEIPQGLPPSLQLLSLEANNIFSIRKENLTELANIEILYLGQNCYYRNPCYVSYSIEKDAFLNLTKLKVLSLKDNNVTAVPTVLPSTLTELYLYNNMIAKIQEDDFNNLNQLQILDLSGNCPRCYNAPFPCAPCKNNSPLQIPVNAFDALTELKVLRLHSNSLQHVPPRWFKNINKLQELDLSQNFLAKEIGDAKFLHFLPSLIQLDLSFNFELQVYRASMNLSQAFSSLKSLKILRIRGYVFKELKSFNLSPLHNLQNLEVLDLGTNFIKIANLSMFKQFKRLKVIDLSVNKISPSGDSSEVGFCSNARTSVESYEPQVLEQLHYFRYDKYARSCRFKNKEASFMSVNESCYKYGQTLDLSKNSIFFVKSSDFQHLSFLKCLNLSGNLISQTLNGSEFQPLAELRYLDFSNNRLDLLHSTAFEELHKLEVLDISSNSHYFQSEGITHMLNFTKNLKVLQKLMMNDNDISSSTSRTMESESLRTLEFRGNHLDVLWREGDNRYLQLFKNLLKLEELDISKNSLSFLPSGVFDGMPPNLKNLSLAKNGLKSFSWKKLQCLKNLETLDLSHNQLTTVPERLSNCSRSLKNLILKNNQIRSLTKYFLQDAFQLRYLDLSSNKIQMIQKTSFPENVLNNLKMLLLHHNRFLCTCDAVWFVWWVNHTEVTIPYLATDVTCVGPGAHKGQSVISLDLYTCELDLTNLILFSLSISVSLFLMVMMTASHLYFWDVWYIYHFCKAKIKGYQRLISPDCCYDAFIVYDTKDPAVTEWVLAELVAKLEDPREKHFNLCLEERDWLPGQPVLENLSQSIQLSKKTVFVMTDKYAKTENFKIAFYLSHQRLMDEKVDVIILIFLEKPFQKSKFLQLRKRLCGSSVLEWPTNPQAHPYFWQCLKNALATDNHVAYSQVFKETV
Nature of the assay: Human TLR7 agonist activity assay (HEK-Blue TLR7 SEAP reporter). The assay is classed as cell-based. The note with it: HEK-Blue TLR7 cells, 18 h treatment, in some instances average of plural assays, read-out: hTLR7 EC50.
Method: Human TLR7 Agonist Activity Assay
HEK-Blue™ TLR7 cells were added to each well of a 384-well tissue-culture plate (15,000 cells per well) and incubated 16-18 h at 37° C., 5% CO2. Compounds (100 nl) were dispensed into wells containing the HEK-Blue™ TLR cells and the treated cells were incubated at 37° C., 5% CO2. After 18 h treatment ten microliters of freshly-prepared Quanti-Blue™ reagent (Invivogen) was added to each well, incubated for 30 min (37° C., 5% CO2) and SEAP levels measured using an Envision plate reader (OD=620 nm).
As for `CCCCNc1nc(N)nc2cnn(Cc3ccc(CNC4CCC4)cc3OC)c12` [Compound 800], the EC50 came to 58.3 nM.

As to `CCCCNc1nc(N)nc2cnn(Cc3ccc(Oc4ccc(CNCCO)cc4)cc3OC)c12` [Compound 802], the EC50 worked out at 43.8 nM.

As to `CCCCNc1nc(N)nc2cnn(Cc3ccc(Oc4ccc(CO)cc4)cc3OC)c12` [Compound 803], the EC50 stood at 569 nM.

`CCCCNc1nc(N)nc2cnn(Cc3ccc(CNCC(C)(C)O)cc3OC)c12` [Compound 805]: the half-maximal effective concentration (EC50) was determined as 41.4 nM.

Regarding `CCCCNc1nc(N)nc2cnn(Cc3ccc(CNC4CCC(O)CC4)cc3OC)c12` (centres unmarked) [Compound 806], the EC50 stood at 41.4 nM.

`CCCCNc1nc(N)nc2cnn(Cc3ccc(CNCC4CC(O)C4)cc3OC)c12` (centres unmarked) [Compound 807]: the concentration for a half-maximal effect (EC50) came to 2550 nM.

With `CCCCNc1nc(N)nc2cnn(Cc3ccc(Oc4ccc(CNCCOC)cc4)cc3OC)c12` [Compound 808], the EC50 turned out to be 157 nM.

Consider `CCCCNc1nc(N)nc2cnn(Cc3ccc(Oc4ccc(CN5CCN(C)CC5)cc4)cc3OC)c12` [Compound 809], for which the EC50 came out at 74.5 nM.

With `CCCCNc1nc(N)nc2cnn(Cc3ccc(Oc4ccc(CN5CCN(CCO)CC5)cc4)cc3OC)c12` [Compound 810], the half-maximal effective concentration (EC50) amounted to 245 nM.

Regarding `CCCCNc1nc(N)nc2cnn(Cc3ccc(CNC4CC(O)C4)cc3OC)c12` (centres unmarked) [Compound 811], the EC50 is 138 nM.

On to `CCCCNc1nc(N)nc2cnn(Cc3ccc(CN4CC5CNCC5C4)cc3OC)c12` (centres unmarked) [Compound 812], for which the concentration giving a half-maximal response (EC50) was determined as 102 nM.

As to `CCCCNc1nc(N)nc2cnn(Cc3ccc(CN4CC(CCO)C4)cc3OC)c12` [Compound 815], the half-maximal effective concentration (EC50) came to 33.2 nM.

`CCCCNc1nc(N)nc2cnn(Cc3ccc(CNCCO)cc3OC)c12` [Compound 816]: the concentration giving a half-maximal response (EC50) is 92.5 nM.

For the molecule `CCC[C@@H](CCO)Nc1nc(N)nc2cnn(Cc3ccc(CO)cc3OC)c12` [Compound 817], the EC50 worked out at 27.8 nM.

With `CCCCNc1nc(N)nc2cnn(Cc3ccc(CO)cc3OC)c12` [Compound 818], the EC50 was 258 nM.

Consider `CCCCNc1nc(N)nc2cnn(Cc3ccc(CNC4(CO)CCCC4)cc3OC)c12` [Compound 820], for which the EC50 is 121 nM.

Turning to `CCCCNc1nc(N)nc2cnn(Cc3ccc(CN4CCCNCC4)cc3OC)c12` [Compound 821], the 50% effective concentration (EC50) is 33.8 nM.

On to `CCCCNc1nc(N)nc2cnn(Cc3ccc(CNc4ccc(CCO)cc4)cc3OC)c12` [Compound 822], for which the EC50 is 244 nM.

Regarding `CCCCNc1nc(N)nc2cnn(Cc3ccc(CN4CCN(CCO)CC4)cc3OC)c12` [Compound 823], the EC50 was 21.5 nM.

Turning to `CCCCNc1nc(N)nc2cnn(Cc3ccc(CN(C)CCCO)cc3OC)c12` [Compound 825], the EC50 was determined as 43.5 nM.

As for `CCCCNc1nc(N)nc2cnn(Cc3ccc(CNCCOC)cc3OC)c12` [Compound 826], the half-maximal effective concentration (EC50) is 182 nM.

Take `CCCCNc1nc(N)nc2cnn(Cc3ccc(CN4CCN(C)CC4)cc3OC)c12` [Compound 827]: the half-maximal effective concentration (EC50) was 47.6 nM.

Take `CCCCNc1nc(N)nc2cnn(Cc3ccc(CNC(C)(C)C)cc3OC)c12` [Compound 828]: the EC50 was found to be 98.7 nM.

Regarding `CCCCNc1nc(N)nc2cnn(Cc3ccc(Oc4ccc(C(C)(C)O)cc4)nc3)c12` [Compound 829], the half-maximal effective concentration (EC50) stood at 1340 nM.

With `CCCCNCc1ccc(Cn2ncc3nc(N)nc(NCCCC)c32)c(OC)c1` [Compound 831], the EC50 is 104 nM.

For the molecule `CCCCNc1nc(N)nc2cnn(Cc3ccc(CN4CCCC4)cc3OC)c12` [Compound 833], the concentration giving a half-maximal response (EC50) amounted to 31.1 nM.

Regarding `CCC[C@@H](CCO)Nc1nc(N)nc2cnn(Cc3ccc(CN4CC5CNCC5C4)cc3OC)c12` (some centres unmarked) [Compound 834], the 50% effective concentration (EC50) worked out at 29.9 nM.

`CCC[C@@H](CCO)Nc1nc(N)nc2cnn(Cc3ccc(CN4CC5(CNC5)C4)cc3OC)c12` [Compound 835]: the EC50 is 89 nM.

Take `CCC[C@@H](CCO)Nc1nc(N)nc2cnn(Cc3ccc(Cn4ccnc4)cc3OC)c12` [Compound 836]: the EC50 stood at 15.3 nM.

With `CCC[C@@H](CCO)Nc1nc(N)nc2cnn(Cc3ccc(CNCc4ccncc4)cc3OC)c12` [Compound 837], the EC50 was 2.4 nM.

Consider `CCC[C@@H](CCO)Nc1nc(N)nc2cnn(Cc3ccc(CN4CCCNCC4)cc3OC)c12` [Compound 838], for which the EC50 was found to be 39.6 nM.

For the molecule `CCC[C@@H](CCO)Nc1nc(N)nc2cnn(Cc3ccc(CN4CC5CC4CN5)cc3OC)c12` (some centres unmarked) [Compound 839], the EC50 is 242 nM.

Regarding `CCC[C@@H](CCO)Nc1nc(N)nc2cnn(Cc3ccc(CNC4CCC4)cc3OC)c12` [Compound 841], the half-maximal effective concentration (EC50) is 9.7 nM.

On to `CCC[C@@H](CCO)Nc1nc(N)nc2cnn(Cc3ccc(CN4CC(CCO)C4)cc3OC)c12` [Compound 842], for which the EC50 was found to be 28.3 nM.

On to `CCC[C@@H](CCO)Nc1nc(N)nc2cnn(Cc3ccc(CN4C[C@@H]5C[C@H]4CN5)cc3OC)c12` [Compound 843], for which the EC50 was 55.9 nM.

For `CCC[C@@H](CCO)Nc1nc(N)nc2cnn(Cc3ccc(CN4CCc5cnccc5C4)cc3OC)c12` [Compound 844], the EC50 turned out to be 4.6 nM.

`CCCCNc1nc(N)nc2cnn(Cc3ccc(CN4CCCNCC4)cc3OC)c12` [Compound 845]: the 50% effective concentration (EC50) is 21.2 nM.

Regarding `CCC[C@@H](CCNC(C)=O)Nc1nc(N)nc2cnn(Cc3ccc(CNC4(C)CCOCC4)cc3OC)c12` [Compound 847], the EC50 is 187 nM.

For `CCC[C@@H](CCO)Nc1nc(N)nc2cnn(Cc3ccc(CNC4(C)CCOCC4)cc3OC)c12` [Compound 848], the EC50 was found to be 33 nM.

As for `CCCCNc1nc(N)nc2cnn(Cc3ccc(CN4CCN(CCO)CC4)cn3)c12` [Compound 849], the EC50 came out at 2030 nM.

With `CCCCNc1nc(N)nc2cnn(Cc3ccc(CN4CCNCC4)cn3)c12` [Compound 850], the EC50 turned out to be 1620 nM.

Consider `CCCCNc1nc(N)nc2cnn(Cc3ccc(CN4CCCC4)cn3)c12` [Compound 851], for which the concentration giving a half-maximal response (EC50) was determined as 1770 nM.

For `CCCCNc1nc(N)nc2cnn(Cc3ccc(CN4CC5CC4CN5)cn3)c12` (centres unmarked) [Compound 852], the EC50 came out at 3170 nM.

Turning to `CCCCNc1nc(N)nc2cnn(Cc3ccc(CNC4CCC4)cc3F)c12` [Compound 853], the EC50 is 420 nM.

With `CCCCNc1nc(N)nc2cnn(Cc3ncc(CNC4CCC4)cc3OC)c12` [Compound 855], the EC50 worked out at 640 nM.

On to `CCCCNc1nc(N)nc2cnn(Cc3ncc(CNC4CCOCC4)cc3OC)c12` [Compound 856], for which the concentration giving a half-maximal response (EC50) worked out at 1160 nM.

On to `CCCCNc1nc(N)nc2cnn(Cc3ccc(Oc4ccc(CNCC(C)(C)O)cc4)cc3OC)c12` [Compound 857], for which the 50% effective concentration (EC50) was 11.5 nM.

With `CCCCNc1nc(N)nc2cnn(Cc3ccc(Oc4ccc(CNC5CCOCC5)cc4)cc3OC)c12` [Compound 858], the half-maximal effective concentration (EC50) stood at 10.8 nM.

As for `CCCCNc1nc(N)nc2cnn(Cc3ccc(Oc4ccc(CNC5CCC5)cc4)cc3OC)c12` [Compound 860], the EC50 worked out at 19.5 nM.

Regarding `CCC[C@@H](CCO)Nc1nc(N)nc2cnn(Cc3ccc(CN4CC(OC)C4)cc3OC)c12` [Compound 861], the half-maximal effective concentration (EC50) was 1.2 nM.

Regarding `CCC[C@@H](CCO)Nc1nc(N)nc2cnn(Cc3ccc(CN4CC(F)(F)C4)cc3OC)c12` [Compound 862], the EC50 came to 11 nM.

In the case of `CCC[C@@H](CCO)Nc1nc(N)nc2cnn(Cc3ccc(CN4CC(O)C4)cc3OC)c12` [Compound 863], the EC50 was determined as 9.5 nM.

As for `CCOCCNc1nc(N)nc2cnn(Cc3ccc(CNC4CCC4)cc3OC)c12` [Compound 864], the 50% effective concentration (EC50) was 216 nM.

Take `COCCNc1nc(N)nc2cnn(Cc3ccc(CNC4CCC4)cc3OC)c12` [Compound 865]: the 50% effective concentration (EC50) turned out to be 959 nM.

Turning to `CCC[C@@H](CCO)Nc1nc(N)nc2cnn(Cc3ccc(CNC4CC(C(C)(C)C)C4)cc3OC)c12` (some centres unmarked) [Compound 866], the EC50 turned out to be 19.5 nM.

`CCC[C@@H](CCO)Nc1nc(N)nc2cnn(Cc3ccc(CN4CC(OC(C)C)C4)cc3OC)c12` [Compound 868]: the EC50 was 1.4 nM.

Turning to `CCCCNc1nc(N)nc2cnn(Cc3ccc(CN4CCN(CCO)CC4)cc3F)c12` [Compound 870], the concentration for a half-maximal effect (EC50) came out at 1800 nM.

As to `CCC[C@H](CCO)Nc1nc(N)nc2cnn(Cc3ccc(CNC4CCC4)cc3OC)c12` [Compound 872], the concentration for a half-maximal effect (EC50) stood at 32.7 nM.

Consider `CCCCNc1nc(N)nc2cnn(Cc3ccc(CC#N)cc3OC)c12` [Compound 873], for which the EC50 was 253 nM.

As for `CCC[C@@H](CCO)Nc1nc(N)nc2cnn(Cc3ccc(CO)cc3)c12` [Compound 874], the EC50 came to 2050 nM.

Take `CCC[C@@H](CCO)Nc1nc(N)nc2cnn(Cc3ccc(CNC4CCC4)cc3)c12` [Compound 875]: the 50% effective concentration (EC50) was determined as 58 nM.

As for `CCC[C@@H](CCO)Nc1nc(N)nc2cnn(Cc3ccc(CN4CC(OC)C4)cc3)c12` [Compound 877], the EC50 was found to be 190 nM.
